In patent US9718835B2 (China Medical University Hospital, priority 2013, dated 2017):

Legend:
A-549 (lung carcinoma) = experiment: Sulforhodamine B cytotoxicity assay, A-549; format: cell-based, human; details: Table 1; 72 h; average ± SD
Text: (§1) The human tumor cell lines used in this manuscript were A-549 (lung carcinoma), MDA-MB-231 (triple-negative breast cancer), DU-145 (hormone-insensitive prostate cancer), KB (originally isolated from epidermoid carcinoma of the nasopharynx), KBvin (vincristine-resistant KB subline), and HCT116 (colorectal adenocarcinoma). These cell lines were obtained from the Lineberger Comprehensive Cancer Center (UNC-CH) or from ATCC (Manassas, Va.), except KBvin, which was a generous gift of Professor Y.-C. Cheng (Yale University). All cell lines were maintained and assayed in RPMI-1640 medium containing 2 mM L-glutamine and 25 mM HEPES (HyClone), supplemented with 10% heat-inactivated fetal bovine serum (HyClone), 100 μg/mL streptomycin, 100 IU/mL penicillin, and 0.25 μg/mL amphotericin B (Cellgro) in a humidified atmosphere containing 5% CO2 in air. […] The 4-6×10^3 cells/well were cultured for 72 h with various concentrations of test compounds in 96-well plate at 37° C. […] Each assay was performed in triplicate with duplicated samples.

[1] = test system: KB (epidermoid carcinoma of the nasopharynx); experiment: Sulforhodamine B cytotoxicity assay, KB; format: cell-based, human; details: Table 1; 72 h; average ± SD; read-out: IC50 KB
Protocol: The 12 novel 1-derivatives 9a-l were evaluated for in vitro antiproliferative activity against four human tumor cell lines, KB (nasopharyngeal), A-549 (lung), DU-145 (prostate), and KBvin (MDR KB subline), by using a sulforhodamine B colorimetric assay with triplicate experiments.^30 Compounds 1 and 3 were used as controls.
The human tumor cell lines used in this manuscript were A-549 (lung carcinoma), MDA-MB-231 (triple-negative breast cancer), DU-145 (hormone-insensitive prostate cancer), KB (originally isolated from epidermoid carcinoma of the nasopharynx), KBvin (vincristine-resistant KB subline), and HCT116 (colorectal adenocarcinoma). These cell lines were obtained from the Lineberger Comprehensive Cancer Center (UNC-CH) or from ATCC (Manassas, Va.), except KBvin, which was a generous gift of Professor Y.-C. Cheng (Yale University). All cell lines were maintained and assayed in RPMI-1640 medium containing 2 mM L-glutamine and 25 mM HEPES (HyClone), supplemented with 10% heat-inactivated fetal bovine serum (HyClone), 100 μg/mL streptomycin, 100 IU/mL penicillin, and 0.25 μg/mL amphotericin B (Cellgro) in a humidified atmosphere containing 5% CO2 in air. Compound stock solutions were prepared at 10 mM in DMSO and diluted with culture medium with the final DMSO concentration ≦0.01% (v/v), a concentration without effect on cell growth. The 4-6×10^3 cells/well were cultured for 72 h with various concentrations of test compounds in 96-well plate at 37° C. […] Each assay was performed in triplicate with duplicated samples.

[2] = test system: KBvin (vincristine-resistant KB subline); experiment: Sulforhodamine B cytotoxicity assay, KBvin; format: cell-based, human; details: Table 1; 72 h; average ± SD; read-out: IC50 KBvin
Text: as §1

HCT 116 (Colon cancer) = experiment: cells; format: cell-based, human; details: Table 6; read-out: In vitro cytotoxicity HCT 116 (Colon cancer)
A549 (Lung cancer) = experiment: cells; format: cell-based, human; details: Table 6; read-out: In vitro cytotoxicity A549 (Lung cancer)
[3] = test system: human colorectal adenocarcinoma HCT116 xenograft; experiment: Xenograft model antitumor assay; format: in vivo, nu/nu mice; details: for mice showing complete regression: i.v. 7 days then i.p., n=8, 31-day study
Protocol: Xenograft model antitumor assay using human colorectal adenocarcinoma cell line HCT116 was performed according to the regimen in Table 2. The 31-day study utilized four groups of mice (n=8) bearing established HCT116 xenograft with mean volumes of approximately 200 mm^3 on day one. The tumor growth and animal body weight change for each treatment group were measured three times per week (FIGS. 2 and 3). Compound 9a was administered intravenously (i.v.) for 7 days and then intraperitoneally (i.p.) at 5 and 10 mg/kg once every day (QD) to the end.
Five- to six-week-old female nu/nu mice (National Laboratory Animal Center, Taiwan) were inoculated subcutaneously with 2×10^6 human colorectal adenocarcinoma HCT116 cells in flank. When the grafted tumor volume reached the average volume of 200 mm^3, mice were randomly divided into four groups (n=8). Vehicle control and compound 9a at 5 or 10 mg/kg were administered i.v. once a day (QD) for 7 days and then i.p. once a day to the end. As an experimental control group, 100 mg/kg of compound 3 was administered i.v. once a week (QWK) to the end. The length (L) and width (W) of graft was measured every 3 to 4 days to the end, and the tumor volume was calculated as LW^2/2. Results were evaluated statistically by Student's t-test. This study was approved by the Institutional Animal Care and Use Committee (IACUC) of the National Taiwan University (Taipei, Taiwan), and was performed according to the institutional guidelines.

[4] = format: in vivo, BALB/c mice
Protocol: Acute toxicity of 9a in mouse was evaluated pathologically. Sixty 8-week-old male BALB/c mice were randomized into six groups (n=10) to receive 0 (vehicle only), 30, 100, 200, or 300 mg/kg of 9a i.p. on day zero. One group was kept without treatment as a normal control. […] Histopathological evaluations included 1) glycogen deposition, inflammatory cell infiltration, and focal necrosis in liver, 2) regeneration of renal tubule, inflammatory cell infiltration, and chronic progressive nephropathy in kidney, and 3) inflammatory cell infiltration and adenoma in lung. […] Thus, the animals apparently tolerated treatment with 300 mg/kg of 9a, portending an acceptable safety profile.
Sixty 8-week-old male BALB/c mice (National Laboratory Animal Center, Taipei, Taiwan) were used to evaluate single-dose toxicity. Mice were randomly divided into six groups (n=10) and received a single i.p. injection of 9a at 0 (vehicle), 30, 100, 200 or 300 mg/kg on day 0. One group was untreated as normal control. Body weight was measured every three days for fifteen days. On the end of experimental period, all animals were euthanized by CO2 and tissues from liver, lung, kidney and spleen were weighted (data not shown). Tissues were fixed with 10% formalin and embedded in paraffin. Sections 3-5 μm in thickness were prepared for histopathological examination. Hematoxylin and eosin (H&E) stained paraffin sections were evaluated histopathologically according to the guideline described by Shackelford et al.^36 and graded the symptomatic lesions. […] Statistically significant results (P<0.05) were is shown. This study was approved by the Institutional Animal Care and Use Committee (IACUC) of China Medical University (Taichung, Taiwan), and was performed according to the institutional guidelines.

CC[C@@]1(OC(=O)CNC(Cc2ccc(OC)cc2)=NS(=O)(=O)c2ccc(C)cc2)C(=O)OCc2c1cc1n(c2=O)Cc2cc3ccccc3nc2-1 [Compound 9a]
IC50 (A-549 (lung carcinoma)): 31 ± 3.5 nM | IC50 [1]: 140 ± 18 nM | IC50 [2]: 26 nM | IC50 (HCT 116 (Colon cancer)): 46.1 ± 1.74 nM | IC50 (A549 (Lung cancer)): 80.3 ± 6.13 nM | mice showing complete regression ([3]; 5 mg/kg QD): Two of eight | antitumor activity in vivo (tumor growth) ([3]; 5 mg/kg QD, P<0.01, Student's t-test): significant antitumor activity | mice showing complete regression ([3]; 10 mg/kg QD): three of eight | antitumor activity in vivo (tumor growth) ([3]; 10 mg/kg QD, P<0.001, Student's t-test): significant antitumor activity | animal body weight change ([3]; 5 and 10 mg/kg QD, xenograft mice): no significant changes in body weight | overt toxicity ([4]; 300 mg/kg i.p.): no overt toxicity | acute toxicity (anaphylactic, allergic responses, body weight loss) ([4]; single i.p. 30, 100, 200 or 300 mg/kg, male BALB/c mice): no anaphylactic responses, allergic reactions, or significant body weight loss | histopathological evaluation of liver, spleen, kidney and lung ([4]; single i.p. up to 300 mg/kg, male BALB/c mice): no adverse effects
